From patent US9394570B2, “Marker for colon cancer and method for detecting colon cancer” (The Chinese University of Hong Kong, priority 2010, dated 2016)
Entries after “also recorded” stand apart in the source; their conditions may differ.

Tested on: TBX5 expression in methylated colon cancer cell lines
Experiment: Demethylation with 5-Aza, TBX5 mRNA expression by RT-PCR
Assay type: cell-based, human
Conditions: 2 μM 5-Aza for 5 days; 4 methylated cell lines with silenced or downregulated TBX5
Procedure: Total RNA was extracted from cell pellets and tissues using TRIzol Reagent according to the manufacturer's instruction (Molecular Research Center, Inc., Cincinnati, Ohio). cDNA was synthesized from 2 μg total RNA using Transcriptor Reverse Transcriptase (Roche Applied Sciences, Indianapolis, Ind.). For semi-quantitative RT-PCR, a 151 bp fragment of the TBX5 gene was amplified for 36 cycles using AmpliTaq Gold DNA polymerase (Applied Biosystems, Foster City, Calif.) as previously reported (Yu et al, Gastro), with β-actin as internal control. The primer sequences of TBX5 are: forward 5′-[…]-3′ (SEQ ID NO:2) and reverse 5′-[…]-3′ (SEQ ID NO:3). Real-time PCR was performed using SYBR Green master mixture on HT7900 system according to the manufactures' instructions (Applied Biosystems).
Cells were seeded at a density of 1×10^6 cells/mL. After 24 hours, cells were treated with 2 μM of the DNA demethylating agent 5-Aza (Sigma-Aldrich, St Louis, Mo.) for 5 days. 5-Aza was replenished every day. Controlled cells were treated with an equivalent concentration of vehicle (DMSO). Cells were then harvested for DNA and RNA extractions.

Nc1ncn([C@H]2C[C@H](O)[C@@H](CO)O2)c(=O)n1 [5-Aza, 5-Aza-2′-deoxycytidine]
TBX5 mRNA expression after demethylation treatment: restoration of TBX5 expression in all cell lines examined; also recorded: restored
